Columns and labels:
[1] = system: 5-HT2A receptor; assay: 5-HT2A receptor activation bias factors (relative intrinsic activity, 5-HT reference); assay type: cell-based, human; conditions: 5-HT as reference agonist; positive = preference for numerator pathway
Description: (§1) The IC50 values from the radioligand binding assays were determined by nonlinear regression, using three independent concentration-response curves fitted to a one-site model. The Cheng-Prusoff equation was used to calculate Kᵢ values for the competing ligands. EC50 values were determined by applying nonlinear regression to concentration-response curves. Bias factors (β) were calculated based on the relative intrinsic activity approach. More detailed information can be found in the Supplementary information. Mean values for total number of HTR, change in body temperature from pre to post session (Δ°C), and total distance traveled (cm) for each drug dose were compared (p < 0.05) via Welch’s ANOVA with Dunnett’s T3 post test, comparing all doses to respective vehicle controls (0 mg/kg). Welch’s ANOVA with Dunnett’s T3 post test was also used to compare drug concentrations, but the data were compared to DOM in this case. Dose–response relationships for HTR and locomotor activities were plotted using bell-shaped curve fits, while temperature change data were plotted using four-parameter non-linear regression curve fits. The ascending phase of the HTR curve for each drug was used to determine ED50 potency values from four parameter non-linear regression fits. For combined DOM and DOAM administration, the plasma, brain tissue, and brain dialysate drug concentrations were compared using paired t-tests (p < 0.05).
Bias factors close to 0 imply no bias toward either tested signaling pathway. Positive values indicate a preference for pathway 1, and negative values indicate a preference for pathway 2, relative to the reference agonist 5-HT. […]
(§2) the β-arrestin 2 molecule in the NanoBiT system) were seeded at a density of 50,000 cells per well in poly - D-lysine-coated 96-well plates in medium containing 10% dialyzed FBS. The plate was then incubated at […]
(§3) The following day, the cells were washed twice with 150 µL HBSS, and 100 µL HBSS was subsequently added to each well. Thereafter, 25 µL of substrate (1 :20 diluted in buffer) was added, and […]
(§4) agonist solutions was added, and the signal was monitored for 2 h. Drug dilutions in HBSS were made from 10 mM stock solutions in DMSO , yielding concentration ranges from 10 µM to 10 pM. All concentrations were run in duplicate and included the appropriate solvent controls. Efficacy was normalized to 5 -HT […]
(§5) 3.2.3 Arachidonic acid release
(§6) Arachidonic acid release was assessed as a marker for Gαi/o,12/13 mediated signaling.
(§7) NIH/3T3 cells stably expressing the 5 -HT2A receptor were seeded at a density of 75,000 cells per well in a poly-D-lysine-coated 48-well plate. The following day, the cells were labeled with 300 μL [ 3H]arachidonic […]
(§8) Thereafter, the cells were washed 3 times for
(§9) (10 mM) of test substances were prepared in DMSO. The final dilution series of test substances dissolved […]
(§10) Thereafter, the plate was put on ice, and 400 μL incubation supernatant per well was transferred int o scintillation vials containing scintillation fluid (Ultimagold, Perkin Elmer, Schwerzenbach, Switzerland). The remaining supernatant was removed, and the cells were lysed with 1% sodium dodecyl sulfate lysis buffer. The obtained cell lysate was transferred into scintillation vials containing scintillation fluid. Radioactivity was measured on a liquid scintillation counter (Packard 1900 TR Tri-Carb Liquid Scintillation Counter; Packard Instrument Company). Efficacy was normalized to 5-HT activity.
(§11) 3.2.4 Calculation of bias factors […]
(§12) using 5-HT as the reference agonist.
(§13) RApathway = EC50, i = EC50, ref×Emax,i […]
Then, the obtained RA values were used to calculate the bias factor (β) for each pathway combination. […]
pathway 1 over pathway 2. Brown-Forsythe and Welch ANOVA analyses were applied to estimate the […]

[2] = molecular target: h5-HT2A (Homo sapiens, UniProt P28223); assay: Arachidonic acid release (Gαi/o,12/13 marker), h5-HT2A; assay type: cell-based; design: expressed in transfected cells; host or cells: HEK 293 cells (membrane preparation); conditions: for Emax: read-out: Arachidonic acid release Emax h5-HT2A (95% CI)
Description: Activation of h5-HT2A, h5-HT2B, and h5-HT2C receptors was examined by measuring the accumulation of inositol monophosphate (IP1) as a marker for Gαq-mediated signaling. For h5-HT2A, additional assays measured β-arrestin 2 recruitment and arachidonic acid release, the latter serving as a marker of Gαi/o,12/13 activation. The methodology is described in detail in the Supplementary information.
as §1, with “0.05). […]” for “0.05).”
as §2, §3, §4, §5, §6, §7, §8, §9, §10, §11, §12, §13

[3] = molecular target: h5-HT2B (Homo sapiens, UniProt P41595); assay: IP1 formation (Gαq-mediated signaling), h5-HT2B; assay type: cell-based; conditions: for Emax: read-out: IP1 formation Emax h5-HT2B (95% CI), normalized to maximal effect of 5-HT
Chain of h5-HT2B (P41595 whole entry): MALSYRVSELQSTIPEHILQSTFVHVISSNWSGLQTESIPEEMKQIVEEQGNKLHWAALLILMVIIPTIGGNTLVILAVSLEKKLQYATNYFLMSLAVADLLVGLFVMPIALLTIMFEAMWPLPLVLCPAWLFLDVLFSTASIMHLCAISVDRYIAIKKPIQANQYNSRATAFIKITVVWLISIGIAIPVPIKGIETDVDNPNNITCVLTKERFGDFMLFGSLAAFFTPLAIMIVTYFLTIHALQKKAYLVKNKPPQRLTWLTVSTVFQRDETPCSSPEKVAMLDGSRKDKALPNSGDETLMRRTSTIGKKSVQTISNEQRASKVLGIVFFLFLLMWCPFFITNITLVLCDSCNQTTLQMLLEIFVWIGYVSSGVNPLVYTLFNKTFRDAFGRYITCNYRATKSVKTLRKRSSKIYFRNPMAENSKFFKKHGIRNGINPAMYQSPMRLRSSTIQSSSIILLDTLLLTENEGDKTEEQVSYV

Chain of h5-HT2A (P28223 whole entry, looked up): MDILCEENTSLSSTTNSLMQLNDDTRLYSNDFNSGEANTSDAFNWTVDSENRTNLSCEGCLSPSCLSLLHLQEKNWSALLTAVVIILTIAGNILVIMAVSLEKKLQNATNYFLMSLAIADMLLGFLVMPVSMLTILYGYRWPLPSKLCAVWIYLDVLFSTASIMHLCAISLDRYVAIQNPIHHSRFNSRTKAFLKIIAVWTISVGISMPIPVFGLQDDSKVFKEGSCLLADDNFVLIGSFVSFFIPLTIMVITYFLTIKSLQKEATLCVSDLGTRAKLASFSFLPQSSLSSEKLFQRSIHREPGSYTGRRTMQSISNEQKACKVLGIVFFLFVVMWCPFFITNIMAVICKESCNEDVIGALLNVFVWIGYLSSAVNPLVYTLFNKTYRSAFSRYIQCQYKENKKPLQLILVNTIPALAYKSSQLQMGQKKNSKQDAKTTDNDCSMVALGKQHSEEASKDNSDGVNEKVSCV

SMILES	Bias factor β Gαi/o,12/13/Gαq [1]	Bias factor β Gαi/o,12/13/β-arrestin 2 [1]	Bias factor β β-arrestin 2/Gαq [1]	Agonist type for Gαi/o,12/13-mediated signaling at the 5-HT2A receptor [2]	EC50 [2] [nM]	Emax [2] [%]	EC50 [3] [nM]	Emax [3] [%]
CCc1cc(OC)c(CC(C)N)cc1OC (stereo not shown) [DOET, 4-ethyl-2,5-dimethoxyamphetamine]	0.16	0.07	0.08	high efficacy partial agonists	1.5	88	236	95
COc1cc(CC(C)N)c(OC)cc1C (stereo not shown) [DOM, 4-methyl-2,5-dimethoxyamphetamine]	0.04	0.39	-0.35	high efficacy partial agonists	3.7	75	688	91
CCCc1cc(OC)c(CC(C)N)cc1OC.Cl (stereo not shown) [DOPR, 4-propyl-2,5-dimethoxyamphetamine hydrochloride]	-0.53	0.11	-0.64	–	0.86	117	228	96
CCCCc1cc(OC)c(CC(C)N)cc1OC (stereo not shown) [DOBU, 4-butyl-2,5-dimethoxyamphetamine]	-0.61	0.25	-0.86	high efficacy partial agonists	2	74	570	122
CCCCCc1cc(OC)c(CC(C)N)cc1OC (stereo not shown) [DOAM, 4-amyl-2,5-dimethoxyamphetamine]	-0.30	0.43	-0.73	high efficacy partial agonists	2.4	91	572	106
COc1ccc(OC)c(CC(C)N)c1.Cl (stereo not shown) [2,5-DMA, 2,5-Dimethoxyamphetamine hydrochloride]	0.37	0.29	0.09	high efficacy partial agonists	–	59	93300	94

From paper PMC12916490 (Molecular Psychiatry, 2025)
